The record followed here is BindingDB's records for PubMed 8100350 (University of Pennsylvania, 1993).

Where a SMILES comes first, the peptide text is derived from it. Bridges are numbered along the chain shown (N, C = ends). [ ]: non-standard residue; d: D form. The star is where a group is joined. ξ: configuration not given here. NH(1-naphthylmethyl) = c1ccc2c(CN*)cccc2c1; Phe(4-Cl) = N[C@@H](Cc1ccc(Cl)cc1)C(=O)O; 1Nal = N[CH](Cc1cccc2ccccc12)C(=O)O; d2Nal = N[C@H](Cc1ccc2ccccc2c1)C(=O)O; dNMeF = CN[C@H](Cc1ccccc1)C(=O)O; Thr(3ξ) = CC(O)[C@H](N)C(=O)O; Thr(ol) = C[CH](O)[CH](N)CO; NMeA = CN[C@@H](C)C(=O)O; dNMeA = CN[C@H](C)C(=O)O; Abu = CC[C@H](N)C(=O)O; Ahp = NCCCCCCC(=O)O; Bn = c1ccc(C*)cc1; ξC = NC(CS)C(=O)O Bounds are passed on as bounds.

For experiment [1], the target named is Somatostatin receptor type 3 (Mus musculus, UniProt P30935).
For experiment [2], the target named is Somatostatin receptor type 1 (Homo sapiens, UniProt P30872).
The target in experiment [3] is Somatostatin receptor type 2 (Mus musculus, UniProt P30875).
Sequence of Somatostatin receptor type 2 (P30875 whole entry): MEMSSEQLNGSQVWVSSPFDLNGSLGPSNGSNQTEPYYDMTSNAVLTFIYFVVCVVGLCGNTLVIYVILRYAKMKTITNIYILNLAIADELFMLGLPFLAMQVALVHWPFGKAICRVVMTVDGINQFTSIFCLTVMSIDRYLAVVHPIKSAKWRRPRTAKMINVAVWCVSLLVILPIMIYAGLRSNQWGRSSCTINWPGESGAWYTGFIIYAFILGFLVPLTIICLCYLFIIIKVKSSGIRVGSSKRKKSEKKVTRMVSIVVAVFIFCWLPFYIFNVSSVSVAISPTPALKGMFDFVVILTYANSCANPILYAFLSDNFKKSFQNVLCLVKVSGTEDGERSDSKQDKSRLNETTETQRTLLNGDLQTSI

Sequence of Somatostatin receptor type 1 (P30872 whole entry): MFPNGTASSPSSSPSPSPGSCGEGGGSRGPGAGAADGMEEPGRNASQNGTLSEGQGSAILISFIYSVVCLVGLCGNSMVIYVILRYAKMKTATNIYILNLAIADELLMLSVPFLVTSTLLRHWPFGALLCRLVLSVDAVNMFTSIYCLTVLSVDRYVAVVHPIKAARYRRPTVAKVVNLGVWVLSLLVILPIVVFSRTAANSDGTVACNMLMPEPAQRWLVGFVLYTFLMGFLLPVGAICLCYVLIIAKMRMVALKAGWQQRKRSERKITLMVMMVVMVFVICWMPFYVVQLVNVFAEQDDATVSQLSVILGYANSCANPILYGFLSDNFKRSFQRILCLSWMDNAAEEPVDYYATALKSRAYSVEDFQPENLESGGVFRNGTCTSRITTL
Sequence of Somatostatin receptor type 3 (P30935 whole entry): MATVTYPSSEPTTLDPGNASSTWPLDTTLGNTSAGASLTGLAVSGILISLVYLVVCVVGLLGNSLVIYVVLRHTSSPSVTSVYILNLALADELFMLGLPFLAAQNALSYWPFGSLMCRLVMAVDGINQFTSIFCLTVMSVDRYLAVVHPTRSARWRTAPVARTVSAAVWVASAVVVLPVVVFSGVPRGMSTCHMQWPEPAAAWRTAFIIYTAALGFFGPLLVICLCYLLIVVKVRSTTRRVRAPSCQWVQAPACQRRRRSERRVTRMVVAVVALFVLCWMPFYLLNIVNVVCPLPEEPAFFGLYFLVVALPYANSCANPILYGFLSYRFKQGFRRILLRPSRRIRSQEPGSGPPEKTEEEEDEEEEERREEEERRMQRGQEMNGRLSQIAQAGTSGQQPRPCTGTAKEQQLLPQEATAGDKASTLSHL

Turning to `C[C@@H](O)[C@H](NC(=O)[C@H](Cc1ccccc1)NC(=O)[C@@H](NC(=O)[C@H](CCCCN)NC(=O)[C@@H](Cc1c[nH]c2ccccc12)NC(=O)[C@H](Cc1ccccc1)NC(=O)[C@H](Cc1ccccc1)NC(=O)[C@H](N)Cc1ccccc1)[C@@H](C)O)C(N)=O` [CAS_133073-82-2] (H-[dF]FF[dW]KTFT-NH2), the Ki in experiment [1] was determined as 0.42 nM; in experiment [2], 23 nM; in experiment [3], 32 nM.
Taken in the same sequence, the figures for `CC(O)[C@H](NC(=O)[C@H](CCCCN)NC(=O)[C@@H](Cc1c[nH]c2ccccc12)NC(=O)[C@H](Cc1ccccc1)NC(=O)[C@@H](C)NC(=O)[C@@H](N)Cc1ccccc1)C(=O)N[C@@H](C)C(=O)N[C@H](C(N)=O)[C@@H](C)O` (stereo partly drawn) [BIM 23051] (H-F[dA]F[dW]K[Thr(3ξ)]AT-NH2) were 72 nM, 1000 nM and 836 nM.
Taken in the same sequence, the figures for `C[C@@H](O)[C@@H]1NC(=O)[C@H](CCCCN)NC(=O)[C@@H](Cc2c[nH]c3ccccc23)NC(=O)[C@H](Cc2ccccc2)NC(=O)[C@@H]2CSSCC(NC1=O)C(=O)NCCCCCCC(=O)N2` [(1R,4S,7S,10R,13S,16R)-4-[(R)-1-Hydroxyethyl]-7-(4-aminobutyl)-10-(1H-indole-3-ylmethyl)-13-benzyl-28,29-dithia-2,5,8,11,14,17,25-heptaazabicyclo[14.10.4]triacontane-3,6,9,12,15,18,26-heptone] (cyclo([Ahp]CF[dW]KT[ξC]); disulfide 2-7) were 0.08 nM, 1000 nM and 83 nM.
Taken in the same sequence, the figures for `C[C@@H](OCc1ccccc1)[C@@H]1NC(=O)[C@H](CCCCN)NC(=O)[C@@H](Cc2c[nH]c3ccccc23)NC(=O)[C@H](Cc2ccccc2)NC(=O)CCCCCCNC1=O` [c[Aha-Phe-D-Trp-Lys-Thr(Bzl)]] (cyclo([Ahp]F[dW]KT(Bn))) were 107 nM, 141 nM and 1000 nM.
`C[C@@H]1NC(=O)[C@@H]2CCCN2C(=O)[C@H](Cc2ccccc2)NC(=O)[C@H]([C@@H](C)O)NC(=O)[C@H](CCCCN)NC(=O)[C@@H](Cc2c[nH]c3ccccc23)NC1=O` [cyclo(Pro-Ala-Trp-Lys-Thr-Phe)] (cyclo(A[dW]KTFP)): the inhibitory constant (Ki) in experiment [1] was 244 nM; in experiment [2] it was 1000 nM; in experiment [3], 356 nM.
For `CC(C)C1NC(=O)C(CCCCN)NC(=O)C(Cc2c[nH]c3ccccc23)NC(=O)C(Cc2ccc(O)cc2)NC(=O)C(NC(=O)C(N)Cc2cccc3ccccc23)CSSCC(C(=O)NC(CO)C(C)O)NC1=O` (stereo not drawn) [DC23-60] (H-[1Nal]CYWKVC[Thr(ol)]; disulfide 2-7; configuration not given here), the Ki worked out at 166 nM in experiment [1], 241 nM in experiment [2] and 0.93 nM in experiment [3].
As to `CC[C@@H]1NC(=O)[C@H](CCCCN)NC(=O)[C@@H](Cc2c[nH]c3ccccc23)NC(=O)[C@H](Cc2ccc(O)cc2)NC(=O)[C@H](C)N(C)C(=O)[C@H](Cc2ccccc2)NC1=O` [BIM-23027] (cyclo([Abu]F[NMeA]Y[dW]K)), the inhibitory constant (Ki) in experiment [1] was found to be 2.4 nM; in experiment [2], 1000 nM; in experiment [3], 0.001 nM.
For `C[C@@H](O)[C@H](NC(=O)[C@H](Cc1ccccc1)NC(=O)[C@@H](NC(=O)[C@H](CCCCN)NC(=O)[C@@H](Cc1c[nH]c2ccccc12)NC(=O)[C@H](Cc1ccc(O)cc1)NC(=O)[C@H](Cc1ccc(Cl)cc1)NC(=O)[C@H](N)Cc1ccc2ccccc2c1)[C@@H](C)O)C(N)=O` [CAS_150155-63-8] (H-[d2Nal][Phe(4-Cl)]Y[dW]KTFT-NH2), the Ki stood at 11 nM in experiment [1], 1000 nM in experiment [2] and 40 nM in experiment [3].
On the same counts, the results for `C[C@H](O)[C@H]1NC(=O)[C@H](CCCCN)NC(=O)[C@@H](Cc2c[nH]c3ccccc23)NC(=O)[C@@H](Cc2ccccc2)NC(=O)[C@@H](C)N(C)C(=O)[C@@H](Cc2ccccc2)N(C)C1=O` [N-Methylcyclo(D-Ala-D-Phe-D-Trp-L-Lys-D-Thr-N-methyl-D-Phe-)] (cyclo(K[dT][dNMeF][dNMeA][dF][dW])) are 18.9 nM, 1000 nM and 26 nM.
Taken in the same sequence, the figures for `NCCCC[C@@H]1NC(=O)[C@@H](Cc2c[nH]c3ccccc23)NC(=O)[C@H](Cc2ccccc2)NC(=O)CCCCCCNC(=O)[C@H](COCc2ccccc2)NC1=O` [c[Aha-Phe-D-Trp-Lys-Ser(Bzl)]] (cyclo([Ahp]F[dW]KS(Bn))) were 214 nM, 80 nM and 1000 nM.
Regarding `C[C@@H](O)[C@H](NC(=O)[C@@H]1CSSC[C@H](NC(=O)[C@H](N)Cc2ccc3ccccc3c2)C(=O)N[C@@H](Cc2ccc(O)cc2)C(=O)N[C@H](Cc2c[nH]c3ccccc23)C(=O)N[C@@H](CCCCN)C(=O)N[C@@H]([C@@H](C)O)C(=O)N1)C(N)=O` [D-Nal-c[Cys-Tyr-D-Trp-Lys-Thr-Cys]-Thr-NH2], the Ki in experiment [1] is 7.1 nM; in experiment [2] it was 1000 nM; in experiment [3], 0.008 nM.
For the molecule `CC(C)[C@H](NC(=O)[C@H](CCCCN)NC(=O)[C@@H](Cc1c[nH]c2ccccc12)NC(=O)[C@H](Cc1ccc(O)cc1)NC(=O)[C@H](C)NC(=O)[C@H](N)Cc1ccccc1)C(=O)N[C@@H](C)C(=O)N[C@H](Cc1ccc2ccccc2c1)C(N)=O` [D-Phe-AIa-Tyr-D-Trp-Lys-Val-Ala-D-Nal-NH2] (H-[dF]AY[dW]KVA[d2Nal]-NH2), the inhibition constant Ki in experiment [1] was 65 nM; in experiment [2] it was 146 nM; in experiment [3], 60 nM.
Taken in the same sequence, the figures for `CC1NC(=O)C(CCCCN)NC(=O)C(Cc2c[nH]c3ccccc23)NC(=O)C(Cc2ccc(O)cc2)NC(=O)C(NC(=O)C(N)Cc2ccccc2)CSSCC(C(=O)NCc2cccc3ccccc23)NC1=O` (stereo not drawn) [BIM 23034] (H-FCYWKAC-{NH(1-naphthylmethyl)}; disulfide 2-7; configuration not given here) were 65 nM, 1000 nM and 0.002 nM.
As for `CC(C)[C@@H]1NC(=O)[C@H](CCCCN)NC(=O)[C@@H](Cc2c[nH]c3ccccc23)NC(=O)[C@H](Cc2ccc(O)cc2)NC(=O)[C@@H](C)N(C)C(=O)[C@H](Cc2ccccc2)NC1=O`, the Ki in experiment [1] is 4.7 nM; in experiment [2], 419 nM; in experiment [3] it was greater than 10000 nM.
On the same counts, the results for `CC(C)[C@@H]1NC(=O)[C@H](CCCCN)NC(=O)[C@@H](Cc2c[nH]c3ccccc23)NC(=O)[C@H](Cc2ccc(O)cc2)NC(=O)[C@@H](NC(=O)[C@H](N)Cc2ccc3ccccc3c2)CSSC[C@@H](C(=O)N[C@H](C(N)=O)[C@@H](C)O)NC1=O` [3-(2-Naphtyl)-D-Ala-L-Cys(1)-L-Tyr-D-Trp-L-Lys-L-Val-L-Cys(1)-L-Thr-NH2] are 5.6 nM, 789 nM and 1.6 nM.
Taken in the same sequence, the figures for `CC(O)[C@H](NC(=O)[C@H](CCCCN)NC(=O)[C@@H](Cc1c[nH]c2ccccc12)NC(=O)[C@H](Cc1ccc(O)cc1)NC(=O)[C@@H](C)NC(=O)[C@@H](N)Cc1ccccc1)C(=O)N[C@@H](C)C(=O)N[C@@H](Cc1cccc2ccccc12)C(N)=O` (stereo partly drawn) [BIM 23070] (H-F[dA]Y[dW]K[Thr(3ξ)]A[1Nal]-NH2) were 111 nM, 1000 nM and 7.8 nM.

The Ki is a dissociation constant, usually derived from enzyme kinetics or from competition with a known ligand.
